Entries after “also recorded” stand apart in the source; their conditions may differ.
Key:
[1] = molecular target: T1, A2A receptors (Rattus norvegicus, UniProt P30543); assay: Radioligand binding, [3H]CGS 21680, rat striatal membranes; details: at 100 μM
T1 construct: to A2A receptors from rat striatal membranes; from tissue; host or cells: rat striatal membranes
Method: (§1) Radioligand binding studies. Binding of [^3H]R-N^6-phenylisopropyladenosine ([^3H]R-PIA) to A1 receptors from rat cerebral cortex membranes and of [^3H]-2-[4-[(2-carboxyethyl)phenyl]ethylamino]-5′-N-ethylcarbamoyladenosine ([^3H]CGS 21680) to A2A receptors from rat striatal membranes was performed as described previously (Schwabe et al., Naunyn Schmiedeberg Arch. Pharmacol. 313:179-187, 1980; Jarvis et al., J. Pharmacol. Exp. Ther. 251:888-893, 1989) Adenosine deaminase (3 units/mL) was present during the preparation of the brain membranes, in a pre-incubation of 30 min at 30° C., and during the incubation with the radioligands. Nonspecific binding was determined in the presence of 10 μM (A1 receptors) or 20 μM (A2A receptors)2-chloroadenosine.
(§2) All non-radioactive compounds were initially dissolved in DMSO, and diluted with buffer to the final concentration, where the amount of DMSO never exceeded 1%. Incubations were terminated by rapid filtration over Whatman GF/B filters, using a Brandell cell harvester (Brandell, Gaithersburg, MD). The tubes were rinsed three times with 3 mL buffer each.
(§3) At least five different concentrations of competitor, spanning 3 orders of magnitude adjusted appropriately for the IC50 of each compound, were used.

[2] = molecular target: T2, A1 receptors (Rattus norvegicus, UniProt P25099); assay: Radioligand binding, [3H]R-PIA, rat cerebral cortex membranes
T2 construct: A1 receptors from rat cerebral cortex membranes; from tissue; host or cells: rat cerebral cortex membranes
T2 sequence (P25099 1-326): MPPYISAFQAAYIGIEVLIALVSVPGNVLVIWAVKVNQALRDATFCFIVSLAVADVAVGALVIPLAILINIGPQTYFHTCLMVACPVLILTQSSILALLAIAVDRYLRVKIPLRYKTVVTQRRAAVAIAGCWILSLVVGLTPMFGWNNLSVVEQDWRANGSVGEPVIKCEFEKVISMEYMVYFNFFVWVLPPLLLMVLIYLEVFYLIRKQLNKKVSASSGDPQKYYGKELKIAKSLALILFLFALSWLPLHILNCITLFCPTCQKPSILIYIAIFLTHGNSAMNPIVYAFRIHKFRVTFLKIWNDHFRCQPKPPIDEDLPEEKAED
Method: as §1, §2, §3

[3] = molecular target: T3, human A3 receptor (Homo sapiens, UniProt P0DMS8); assay: Radioligand binding, [125I]AB-MECA, HEK-293 cell membranes; design: host or cells: HEK-293; details: read-out: Ki(hA3)
T3 sequence (P0DMS8 1-318): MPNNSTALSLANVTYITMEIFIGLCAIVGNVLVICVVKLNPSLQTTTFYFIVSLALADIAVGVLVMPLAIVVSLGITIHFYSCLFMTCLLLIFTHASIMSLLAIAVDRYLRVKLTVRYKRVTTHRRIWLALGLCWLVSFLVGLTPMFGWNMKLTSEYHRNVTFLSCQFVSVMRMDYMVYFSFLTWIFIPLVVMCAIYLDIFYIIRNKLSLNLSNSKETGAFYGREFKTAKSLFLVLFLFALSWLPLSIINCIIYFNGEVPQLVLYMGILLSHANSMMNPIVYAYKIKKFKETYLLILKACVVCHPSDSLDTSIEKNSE
Method: Natl. Acad. Sci. […] Natl. Acad. Sci. U.S.A. 89:7432-7436, 1992) was performed as described at 4° C. (Olah et al., Mol. Pharmacol. 45:978-982, 1994). The assay medium consisted of a buffer containing 10 mM Mg^2+, 50 mM Tris, 3 units/mL adenosine deaminase, and 1 mM EDTA, at pH 8.0 (4° C.). […] Incubations were terminated by rapid filtration over Whatman GF/B filters, using a Brandell cell harvester (Brandell, Gaithersburg, MD). The tubes were rinsed three times with 3 mL buffer each. At least five different concentrations of competitor, spanning 3 orders of magnitude adjusted appropriately for the IC50 of each compound, were used. IC50 values, calculated with the nonlinear regression method implemented in the InPlot program (Graph-PAD, San Diego, Calif.), were converted to apparent Ki values using the Cheng-Prusoff equation (Cheng et al., Biochem.

[4] = Oxidation of 1-methyl-1,4-dihydropyridine in rat brain homogenate; type: in vitro ADME; details: rat brain homogenate supernatant, pH 7.4, 37 C, read-out: t½ of oxidation to pyridinium salt 11
Method: The rat brain homogenate was prepared by the following method. One rat ([…]) was killed and the brain (weighing 2.26 g) was removed, and homogenized in 12 mL PBS (Biofluids, Inc., 1×pH 7.4). The homogenate was centrifuged at 12,000×rpm, and the supernatant was used. 5 mg of 24 dissolved in 0.2 mL of DMSO was mixed with 10 mL of brain homogenate (initial concentration of 1.27 mM), which was previously equilibrated to 37° C. in a water bath incubator, and shaking was continued at that temperature. Aliquots of 500 μL were withdrawn at 2, 4, 8, 16, 32, 64, 128, 256, 768 min (2×each) from the test medium, added immediately to 3 mL of ice-cold ethyl ether, shaken vigorously, and placed in a freezer. When all samples had been collected, and the ether layer of each sample was separated. After evaporation of the ether, each residue was dissolved in 200 μL methanol, filtered through Whatman 1 filter paper and analyzed by HPLC.
Pyridinium salt 11 could be generated through oxidation of the corresponding reduced precursor, 1-methyl-2,4-diethyl-3-(ethylsulfanylcarbonyl)-5-ethyloxycarbonyl-6-phenyl-1,4-dihydropyridine, 24. The conversion of 24 to 11 by chemical means (iodine in nitromethane) and during incubation at 37 C with rat brain membranes, to simulate in vivo conditions, was studied. The chemical conversion occurred readily, and the time course of the biochemical oxidation was recorded . […]

[5] = molecular target: human A2 receptors; details: read-out: Ki for binding to human A2 receptors; cited from earlier work
[6] = tested on: A1 and A2A receptors; assay: Estimated occupancy of A1 and A2A receptors at the concentrations used; details: at the concentrations used (300 nM MRS 1097, 100 nM MRS 1191, 100 nM MRS 1523)
[7] = tested on: HCE (human ciliary epithelial) cell line, NPE cells; assay: Cell volume (shrinkage) of NPE cells in isosmotic solution, Coulter Counter, 5 μM gramicidin; type: cell-based; details: for effect of A3 antagonist on adenosine-stimulated isotonic shrinkage: 300 nM MRS-1097, 100 nM MRS-1191, 100 nM MRS-1523, 10 μM adenosine; for effect of A3 antagonist on IB-MECA-stimulated isotonic shrinkage: 2 min preincubation, MRS-1097 300 nM, MRS-1191 100 nM, 100 nM IB-MECA; for effect of A3 antagonist on shrinkage triggered by 3 μM CGS-21680: 100 nM MRS-1191 preincubation
Method: A 0.5-ml aliquot of the HCE cell suspension in DMEM was added to 20 ml of each test solution, which contained (in mM): 110.0 NaCl, 15.0HEPES [4-(2-hydroxyethyl)-1-piperazineethanesulfonic acid], 2.5 CaCl2, 1.2 MgCl2, 4.7 KCl, 1.2 KH2PO4, 30.0 NaHCO3, and 10.0 glucose, at a pH of 7.4 and osmolality of 298-305 mOsm. Parallel aliquots of cells were studied on the same day. One aliquot usually served as a control, and the others were exposed to different experimental conditions at the time of suspension. The same amount of solvent vehicle (dimethylformamide, DMSO or ethanol) was always added to the control and experimental aliquots. The sequence of studying the suspensions was varied to preclude systematic time-dependent artifacts (Civan et al., Exp. Eye Res. 54:181-191, 1992).
Cell volumes of isosmotic suspensions were measured with a Coulter Counter (model ZBI-Channelyzer II), using a 100-μm aperture (Civan et al., supra., 1994). As previously described (Wax et al., supra., 1993), the cell volume (vC) of the suspension was taken as the peak of the distribution function. Cell shrinkage was fit as a function of time (t) to a monoexponential function:
vC=v∞+(v0−v∞)−[e^−(t−t^0^)/τ] {1}
where v∞ is the steady-state cell volume, v0 is the cell volume at the first point (t0) of the time course to be fit, and τ is the time constant of the shrinkage. For purposes of data reduction, the data were normalized to the first time point, taken to be 100% isotonic volume. Fits were obtained by nonlinear least-squares regression analysis, permitting both v∞and τ to be variables.
In order to differentiate among these receptors, the experiments were repeated in the present study using a series of agonists and antagonists selective for these receptors. As we wished to identify the effects of these receptors specifically on Cl^− channels, 5 μM gramicidin D was included in all solutions to eliminate any potential contribution from K^+ channels. This ionophore readily partitions into plasma membranes to form a cation-selective pore, and is widely used for studying volume regulation (Hoffmann et al., in Interaction of Cell Volume and Cell Function, Lang et al., eds., Springer, Heidelberg, Germany, pp. 188-248, (ACEP Series 14), 1993)). Under these conditions, release of cell Cl^− becomes the rate-limiting factor in both hypo-(Civan et al., Exp. Eye Res. 54:181-191, 1992) and isoosmotic cell shrinkage (Carre et al., supra., 1997).

[8] = molecular target: T4, recombinant human A2B receptors (Homo sapiens, UniProt P29275); assay: Radioligand binding to recombinant human A2B receptors; details: at 10 μM
T4 sequence (P29275 1-332): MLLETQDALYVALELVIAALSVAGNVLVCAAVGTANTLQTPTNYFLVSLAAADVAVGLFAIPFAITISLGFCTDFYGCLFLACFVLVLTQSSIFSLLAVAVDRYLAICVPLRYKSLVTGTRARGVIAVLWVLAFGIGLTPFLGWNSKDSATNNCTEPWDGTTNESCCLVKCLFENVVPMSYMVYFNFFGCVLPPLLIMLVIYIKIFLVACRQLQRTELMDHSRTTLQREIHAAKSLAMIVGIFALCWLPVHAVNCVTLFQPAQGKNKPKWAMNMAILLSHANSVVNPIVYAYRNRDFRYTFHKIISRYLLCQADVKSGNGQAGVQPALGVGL

T1 sequence (P30543 whole entry): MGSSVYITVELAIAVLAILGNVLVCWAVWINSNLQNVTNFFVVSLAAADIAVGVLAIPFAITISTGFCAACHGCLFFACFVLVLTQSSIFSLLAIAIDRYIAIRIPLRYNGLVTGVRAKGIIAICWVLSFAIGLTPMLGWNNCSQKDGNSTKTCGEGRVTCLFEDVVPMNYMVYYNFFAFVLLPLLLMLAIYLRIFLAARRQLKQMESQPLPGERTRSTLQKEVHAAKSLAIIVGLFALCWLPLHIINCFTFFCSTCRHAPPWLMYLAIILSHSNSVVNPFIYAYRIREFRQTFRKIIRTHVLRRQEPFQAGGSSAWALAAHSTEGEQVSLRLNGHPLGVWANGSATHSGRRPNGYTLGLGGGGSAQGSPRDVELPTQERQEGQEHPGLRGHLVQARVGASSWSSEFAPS

Compound | percent displacement of specific radioligand binding at rat A2A receptors [1] | Ki [2] | Ki [3] | half-life at 1.27 mM [4] | Ki [5] | share of the A1 and A2A receptors that could have been occupied [6] | effect of A3 antagonist on adenosine-stimulated isotonic shrinkage [7] | effect of A3 antagonist on adenosine-stimulated isotonic shrinkage ([7]; listed as MRS 1097) | effect of A3 antagonist on IB-MECA-stimulated isotonic shrinkage [7] | effect of A3 antagonist on IB-MECA-stimulated isotonic shrinkage ([7]; listed as MRS 1097) | displacement of radioligand binding to recombinant human A2B receptors [8] | effect of A3 antagonist on shrinkage triggered by 3 μM CGS-21680 [7] | effect of A3 antagonist on shrinkage triggered by 3 μM CGS-21680 ([7]; listed as MRS 1191) | effect on cell volume in the absence of IB-MECA ([7]; 100 nM antagonist alone) | effect of A3 antagonist on adenosine-stimulated isotonic shrinkage ([7]; listed as MRS 1191) | effect of A3 antagonist on IB-MECA-stimulated isotonic shrinkage ([7]; listed as MRS 1191)
CCOC(=O)C1=C(c2ccccc2)N(C)C(CC)=C(C(=O)SCC)C1CC (stereo not shown) [Compound 24, 1-Methyl-2,4-diethyl-3-(ethylsulfanylcarbonyl)5-ethyloxycarbonyl-6-phenyl-1,4-dihydropyridine] | 48±7% | 28.4 ± 2.5 µM | 0.379 ± 0.122 µM | ~47 min |  |  |  |  |  |  |  |  |  |  |  | 
3-ethyl 5-benzyl-2-methyl-6-phenyl-4-styryl-1,4-(±)-dihydropyridine-3,5-dicarboxylate [MRS-1097] |  |  |  |  | 4.77 µM | < 20% | prevented the characteristic shrinkage | blocked the shrinkage | prevented shrinkage | blocked the isoomotic shrinkage; also recorded: prevented the subsequent response; also recorded: prevent the shrinkage |  |  |  |  |  | 
CCOC(=O)C1=C(C)NC(c2ccccc2)=C(C(=O)OCc2ccccc2)C1C#Cc1ccccc1 (racemic) [MRS-1191, 3-ethyl 5-benzyl-2-methyl-6-phenyl-4-phenylethynyl-1,4-(±)-dihydropyridine-3,5-dicarboxylate] |  |  |  |  | > 100 µM |  | prevented the characteristic shrinkage |  | prevented characteristic shrinkage |  | did not displace radioligand binding | abolished this effect; also recorded: blocked | prevented this shrinkage | did not affect cell volume | blocked the shrinkage | prevent the shrinkage

Source: US6528516B1, “Methods for reducing intraocular pressure using A3 adenosine receptor antagonists” (Trustees of the University of Pennsylvania, The Center for …, priority 1998, dated 2003)
